Data taken from US5217969A, “Benzoxazine derivatives as inhibitors of leukotrienes” (Imperial Chemical Industries PLC, priority 1990, dated 1993).

Assays:
5-LO [1] = biological target: T1, 5-LO (Homo sapiens, UniProt P09917); experiment: test b) heparinised human blood challenged with A23187, LTB4 radioimmunoassay; type: cell-based
T1 construct: heparinised human blood, prior to challenge with the calcium ionophore A23187; endogenous in cells; host or cells: heparinised human blood (endogenous enzyme of the blood cells)
T1 sequence (P09917 1-674): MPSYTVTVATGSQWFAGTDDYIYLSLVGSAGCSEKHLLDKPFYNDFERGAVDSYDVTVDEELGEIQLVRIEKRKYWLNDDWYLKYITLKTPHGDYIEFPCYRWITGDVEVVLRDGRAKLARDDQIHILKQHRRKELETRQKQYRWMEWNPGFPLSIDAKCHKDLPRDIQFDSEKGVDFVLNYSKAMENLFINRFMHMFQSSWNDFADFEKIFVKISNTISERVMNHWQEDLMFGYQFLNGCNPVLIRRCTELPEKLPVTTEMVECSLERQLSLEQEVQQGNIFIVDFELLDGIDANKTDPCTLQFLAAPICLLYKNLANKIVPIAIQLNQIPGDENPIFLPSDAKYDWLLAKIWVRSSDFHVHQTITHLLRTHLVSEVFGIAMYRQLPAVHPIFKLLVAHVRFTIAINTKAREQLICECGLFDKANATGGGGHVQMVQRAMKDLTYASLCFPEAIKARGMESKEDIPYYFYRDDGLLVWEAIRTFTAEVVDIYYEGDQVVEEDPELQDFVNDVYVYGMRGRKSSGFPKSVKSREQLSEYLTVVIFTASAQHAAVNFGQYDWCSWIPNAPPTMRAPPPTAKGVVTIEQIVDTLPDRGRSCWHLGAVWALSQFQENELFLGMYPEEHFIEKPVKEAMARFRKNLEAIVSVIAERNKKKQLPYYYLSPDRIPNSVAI
Description: b) An in vitro assay system involving incubating a test compound with heparinised human blood, prior to challenge with the calcium ionophore A23187 and then indirectly measuring the inhibitory effects on 5-LO by assaying the amount of LTB4 using the specific radioimmunoassays described by Carey and Forder (F. Carey and R. A. Forder, Prostaglandins, Leukotrienes Med., 1986, 22, 57; Prostaglandins, 1984, 28, 666; Brit. J. Pharmacol. 1985, 84, 34P) which involve the use of a protein-LTB4 conjugate produced using the procedure of Young et alia (Prostaglandins, 1983, 26(4), 605-613). The effects of a test compound on the enzyme cyclooxygenase (which is involved in the alternative metabolic pathway for arachidonic acid and gives rise to prostaglandins, thromboxanes and related metabolites) may be measured at the same time using the specific radioimmunoassay for thromboxane B2 (T×B2) described by Carey and Forder (see above). This test provides an indication of the effects of a test compound against 5-LO and also cyclooxygenase in the presence of blood cells and proteins. It permits the selectivity of the inhibitory effect on 5-LO or cyclooxygenase to be assessed.

5-LO [2] = biological target: T2, 5-LO (Rattus norvegicus, UniProt P12527); experiment: test g) liberation of LTB4 induced by zymosan within an air pouch of male rats; type: in vivo; details: oral
T2 construct: liberation of LTB4 induced by zymosan within an air pouch generated within the subcutaneous tissue of the back of male rats; endogenous in cells; host or cells: living male rats; endogenous enzyme of cells in the zymosan-inflamed subcutaneous air pouch
T2 sequence (P12527 1-673): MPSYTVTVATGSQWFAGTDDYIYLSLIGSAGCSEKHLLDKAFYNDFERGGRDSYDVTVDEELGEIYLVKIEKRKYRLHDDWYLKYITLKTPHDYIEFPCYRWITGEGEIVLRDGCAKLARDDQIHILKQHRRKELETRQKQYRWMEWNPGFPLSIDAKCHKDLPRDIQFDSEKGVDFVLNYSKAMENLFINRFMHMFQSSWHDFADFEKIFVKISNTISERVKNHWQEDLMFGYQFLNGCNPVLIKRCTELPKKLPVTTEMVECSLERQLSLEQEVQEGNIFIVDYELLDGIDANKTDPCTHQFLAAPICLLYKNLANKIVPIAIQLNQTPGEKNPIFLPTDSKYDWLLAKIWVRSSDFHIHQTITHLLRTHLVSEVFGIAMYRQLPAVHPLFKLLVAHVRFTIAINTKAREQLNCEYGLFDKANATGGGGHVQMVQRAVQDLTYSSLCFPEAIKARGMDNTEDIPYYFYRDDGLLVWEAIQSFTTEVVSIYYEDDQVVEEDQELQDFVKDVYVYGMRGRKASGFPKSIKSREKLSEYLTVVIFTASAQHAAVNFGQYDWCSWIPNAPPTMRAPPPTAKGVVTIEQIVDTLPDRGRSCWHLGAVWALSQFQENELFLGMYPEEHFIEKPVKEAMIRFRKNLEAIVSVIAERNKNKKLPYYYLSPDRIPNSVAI
Description: g) An in vivo system involving measuring the effects of a test compound administered orally against the liberation of LTB4 induced by zymosan within an air pouch generated within the subcutaneous tissue of the back of male rats. The rats are anaesthetised and air pouches are formed by the injection of sterile air (20 ml). A further injection of air (10 ml) is similarly given after 3 days. At 6 days after the initial air injection the test compound is administered (usually orally as the suspension produced when a solution of the test compound in dimethylsulphoxide is added to hydroxypropylmethylcellulose), followed by the intrapouch injection of zymosan (1 ml of a 1% suspension in physiological saline). After 3 hours the rats are killed, the air pouches are lavaged with physiological saline, and the specific radioimmunoassay described above is used to assay LTB4 in the washings. This test provides an indication of inhibitory effects against 5-LO in an inflammatory milieu.

| IC50 (5-LO [1]) [nM] | ED50 (5-LO [2]) [mg/kg] | SMILES |
| --- | --- | --- |
| 40 | 0.4 | COC1(c2cc(F)cc(OCc3ccc4c(c3)OCC(=O)N4C)c2)CCOCC1 [Example 1, 4-[5-fluoro-3-(4-methyl-3-oxo-2,3-dihydro-4H-1,4-benzoxazin-7-ylmethoxy)phenyl]-4-methoxytetrahydropyran] |
| 50 | 1.5 | COC1(c2cc(F)cc(OCc3ccc4c(c3)OC(C)(C)C(=O)N4C)c2)CCOCC1 [Example 2, 4-[5-fluoro-3-(2,2,4-trimethyl-3-oxo-2,3-dihydro-4H-1,4-benzoxazin-7-ylmethoxy)phenyl]-4-methoxytetrahydropyran] |
| 50 | 0.15 | COC1(c2cc(F)cc(Sc3ccc4c(c3)OCC(=O)N4C)c2)CCOCC1 [Example 5, 4-[5-fluoro-3-(4-methyl-3-oxo-2,3-dihydro-4H-1,4-benzoxazin-7-ylthio)phenyl]-4-methoxytetrahydropyran] |
| 300 | 1.5 | COC1(c2cc(F)cc(Sc3ccc4c(c3)OCC(=S)N4C)c2)CCOCC1 [Example 7, 4-[5-fluoro-3-(4-methyl-3-thioxo-2,3-dihydro-4H-1,4-benzoxazin-7-ylthio)phenyl]-4-methoxytetrahydropyran] |
